Reference: US11149021B2, “N-(azaaryl)cyclolactam-1-carboxamide derivative, preparation method therefor, and use thereof” (Abbisko Therapeutics Co., Ltd., priority 2017, dated 2021)
Like-named read-outs stand apart in the source and are kept apart here.

Key:
[1] = tested on: M-NFS-60 mouse myeloid leukemia lymphocytes; test: CSF-1R cell proliferation study (Cell Titer Glo); format: cell-based; details: Lymphocyte, 72 h;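 further: M-CSF-driven proliferation, viable cells quantified as ATP by luminescence, compounds tested as 3-fold serial dilutions, values from four-parameter curve fits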
Description: Functional effects of compounds on cell proliferation were evaluated by using Cell Titer Glo (CTG) study in the present invention. […] Since ATP is an index for viable cell metabolism, CTG (Promega, #G7573) reagent is a homogeneous detection method for detecting the number of viable cells in the culture by quantifying ATP. Therefore, compound-mediated inhibition for cell proliferation/survival was evaluated by quantifying ATP content in cells, and the specific experimental process was as follows:
3. 10 μL of culture medium containing M-CSF with 10-fold of the final concentration was then added to each well;
4. dosage effect was evaluated by testing the 3-fold serial dilutions of the compound;
5. after the cells were incubated for 3 days at 37° C. and 5% CO2, the inhibition on cell survival was quantified after 50 μL of CTG was added and the luminescence assay was performed;
6. the compound concentration leading to half maximal inhibitory (IC50) and the compound concentration leading to absolute half maximal inhibitory (Absolute IC50) was measured by a plate reader (M1000, Tecan) and a four-parameter curve fit in Graphpad Prism 7.

CSF-1R = biological target: T1, CSF-1R (Homo sapiens, UniProt P07333); test: CSF-1R in vitro biochemical kinase study (ADP-Glo assay)
T1 construct: 3.95 nM of CSF-1R, 500 μM of ATP
T1 sequence (P07333 20-972): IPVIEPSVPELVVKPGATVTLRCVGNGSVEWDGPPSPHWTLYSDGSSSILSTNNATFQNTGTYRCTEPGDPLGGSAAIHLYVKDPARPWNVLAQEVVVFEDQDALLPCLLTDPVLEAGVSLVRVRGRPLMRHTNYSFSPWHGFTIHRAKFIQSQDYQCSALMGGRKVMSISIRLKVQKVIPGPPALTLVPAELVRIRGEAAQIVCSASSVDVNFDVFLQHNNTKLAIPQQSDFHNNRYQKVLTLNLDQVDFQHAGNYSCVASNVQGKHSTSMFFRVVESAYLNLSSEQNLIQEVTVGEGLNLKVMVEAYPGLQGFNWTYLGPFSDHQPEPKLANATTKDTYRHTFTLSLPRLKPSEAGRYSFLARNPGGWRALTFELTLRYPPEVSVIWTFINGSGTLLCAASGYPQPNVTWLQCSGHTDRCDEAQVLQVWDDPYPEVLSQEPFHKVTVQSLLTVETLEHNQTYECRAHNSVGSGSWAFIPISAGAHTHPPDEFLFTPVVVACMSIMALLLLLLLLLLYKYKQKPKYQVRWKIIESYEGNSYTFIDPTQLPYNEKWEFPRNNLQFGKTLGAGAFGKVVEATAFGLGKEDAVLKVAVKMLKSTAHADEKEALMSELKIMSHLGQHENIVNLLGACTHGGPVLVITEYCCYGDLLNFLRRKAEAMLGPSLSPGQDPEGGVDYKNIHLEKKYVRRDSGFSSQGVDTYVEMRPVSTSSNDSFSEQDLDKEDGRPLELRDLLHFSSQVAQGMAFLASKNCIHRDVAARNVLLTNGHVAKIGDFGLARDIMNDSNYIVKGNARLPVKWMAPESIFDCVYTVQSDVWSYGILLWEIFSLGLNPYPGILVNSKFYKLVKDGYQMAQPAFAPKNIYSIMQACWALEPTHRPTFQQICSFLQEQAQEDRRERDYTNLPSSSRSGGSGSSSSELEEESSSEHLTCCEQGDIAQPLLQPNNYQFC

[2] = read-out: Cytological experiment CS1-1R Absolute IC50 (nM)
[3] = read-out: Cytological experiment CSF-1R IC50 (nM)
[4] = M-NFS-60 cells, M-CSF, 3 days, CTG, * = average of multiple tests, read-out: Cytological experiment CSF-1R IC50
[5] = M-NFS-60 cells, M-CSF, 3 days, CTG, absolute half maximal inhibition, * = average of multiple tests, read-out: Cytological experiment CS1-1R Absolute IC50

Row | SMILES | IC50 [1, 2] [nM] | IC50 [1, 3] [nM] | IC50 (CSF-1R) [nM] | IC50 [1, 4] [nM] | IC50 [1, 5] [nM]
1 | Cc1nc(NC(=O)N2CCC(C)(C)C2=O)ccc1Oc1ccnc(NC(=O)N2CCN(C)CC2)c1 [Example 24, N-(4-((6-(3,3-dimethyl-2-oxopyrrolidine-1-carboxamido)-2-methylpyridin-3-yl)oxy)pyridin-2-yl)-4-methylpiperazine-1-carboxamide] | 164 | 221 | 56.6 |  | 
2 | Cc1nc(NC(=O)N2CCC(C)(C)C2=O)ccc1Oc1ccnc(-c2cn(C)cn2)c1 [Example 19, 3,3-dimethyl-N-(6-methyl-5-((2-(1-methyl-1H-imidazol-4-yl)pyridin-4-yl)oxy)pyridin-2-yl)-2-oxopyrrolidine-1-carboxamide] | 647 | 644 | 176 |  | 
3 | CNC(=O)c1cc(Oc2ccc(NC(=O)N3CCC(C)(C)C3=O)nc2C)ccn1 [Example 27, 4-((6-(3,3-dimethyl-2-oxopyrrolidine-1-carboxamido)-2-methylpyridin-3-yl)oxy)-N-methylpicolinamide] | 441 | 487 | 135 |  | 
4 | Cc1ncc(-c2cc(Oc3ccc(NC(=O)N4CCC(C)(C)C4=O)nc3C)ccn2)s1 [Example 5, 3,3-dimethyl-N-(6-methyl-5-((2-(2-methylthiazol-5-yl)pyridin-4-yl)oxy)pyridin-2-yl)-2-oxopyrrolidine-1-carboxamide] | 334 | 454 | 54.7 |  | 
5 | Cc1nc(NC(=O)N2CCC(C)(C)C2=O)ccc1Oc1ccnc(-c2cn[nH]c2)c1 [Example 9, N-(5-((2-(1H-pyrazol-4-yl)pyridin-4-yl)oxy)-6-methylpyridin-2-yl)-3,3-dimethyl-2-oxopyrrolidine-1-carboxamide] | 193 | 216 | 80.2 |  | 
6 | Cc1nc(NC(=O)N2CCC(C)C2=O)ccc1Oc1ccnc(-c2cnn(C)c2)c1 (stereo not shown) [Example 32, 3-methyl-N-(6-methyl-5-((2-(1-methyl-1H-pyrazol-4-yl)pyridin-4-yl)oxy)pyridin-2-yl)-2-oxopyrrolidine-1-carboxamide] | 782 | 667 | 324 |  | 
7 | Cc1nc(NC(=O)N2CCC(C)(C)C2=O)ccc1Oc1ccnc(-c2cnn(CCN3CCOCC3)c2)c1 [Example 8, 3,3-dimethyl-N-(6-methyl-5-((2-(1-(2-morpholinoethyl)-1H-pyrazol-4-yl)pyridin-4-yl)oxy)pyridin-2-yl)-2-oxopyrrolidine-1-carboxamide] | 110 | 148 | 57.9 |  | 
8 | COCCn1cc(-c2cc(Oc3ccc(NC(=O)N4CCC(C)(C)C4=O)nc3C)ccn2)cn1 [Example 7, N-(5-((2-(1-(2-methoxyethyl)-1H-pyrazol-4-yl)pyridin-4-yl)oxy)-6-methylpyridin-2-yl)-3,3-dimethyl-2-oxopyrrolidine-1-carboxamide] | 203 | 222 | 72.5 |  | 
9 | Cc1nc(NC(=O)N2CCC(C)(C)C2=O)ccc1Oc1ccnc(-c2cnn(C3COC3)c2)c1 [Example 18, 3,3-dimethyl-N-(6-methyl-5-((2-(1-(oxetan-3-yl)-1H-pyrazol-4-yl)pyridin-4-yl)oxy)pyridin-2-yl)-2-oxopyrrolidine-1-carboxamide] |  |  |  | 125 | 114
10 | Cc1nc(NC(=O)N2CCC(C)(C)C2=O)ccc1Oc1ccnc(-c2cnn(C3CCN(C)C3)c2)c1 (stereo not shown) [Example 17] |  |  | 101 |  | 
11 | Cc1cc(-c2cc(Oc3ccc(NC(=O)N4CCC(C)(C)C4=O)nc3C)ccn2)ccn1 [Example 4, 3,3-dimethyl-N-(6-methyl-5-((2′-methyl-[2,4′-bipyridin]-4-yl)oxy)pyridin-2-yl)-2-oxopyrrolidine-1-carboxamide] | 213 | 216 | 42.9 |  | 
12 | Cc1nc(NC(=O)N2CCC(C)(C)C2=O)ccc1Oc1ccnc(NC(=O)C2CCN(C)CC2)c1 [Example 25, N-(4-((6-(3,3-dimethyl-2-oxopyrrolidine-1-carboxamido)-2-methylpyridin-3-yl)oxy)pyridin-2-yl)-1-methylpiperidine-4-carboxamide] | 1990 | 1920 | 1120 |  | 
13 | CCCC1(CCC)CCN(C(=O)Nc2ccc(Oc3ccnc(-c4cnn(C)c4)c3)c(C)n2)C1=O [Example 30, N-(6-methyl-5-((2-(1-methyl-1H-pyrazol-4-yl)pyridin-4-yl)oxy)pyridin-2-yl)-2-oxo-3,3-dipropylpyrrolidine-1-carboxamide] | 1160 | 1380 | 98.3 |  | 
14 | Cc1nc(NC(=O)N2CCC(C)(C)C2=O)ccc1Oc1ccnc(NC(=O)C2CC2)c1 [Example 26, N-(5-((2-(cyclopropane-carboxamido)pyridin-4-yl)oxy)-6-methylpyridin-2-yl)-3,3-dimethyl-2-oxopyrrolidine-1-carboxamide] | 157 | 161 | 75.2 |  | 
15 | COCCC1(C)CCN(C(=O)Nc2ccc(Oc3ccnc(-c4cnn(C)c4)c3)c(C)n2)C1=O (stereo not shown) [Example 37, 3-(2-methoxyethyl)-3-methyl-N-(6-methyl-5-((2-(1-methyl-1H-pyrazol-4-yl)pyridine-4-yl)oxy)pyridin-2-yl)-2-oxopyrrolidine-1-carboxamide] | 140 | 141 | 207 |  | 
16 | Cc1nc(NC(=O)N2CCC(C)(OCc3ccccc3)C2=O)ccc1Oc1ccnc(-c2cnn(C)c2)c1 (stereo not shown) [Example 36, 3-(benzyloxy)-3-methyl-N-(6-methyl-5-((2-(1-methyl-1H-pyrazol-4-yl)pyridin-4-yl)oxy)pyridin-2-yl)-2-oxopyrrolidine-1-carboxamide] |  |  |  | 500 | 727
17 | CCc1nc(NC(=O)N2CCC(C)(C)C2=O)ccc1Oc1ccnc(-c2cnn(C)c2)c1 [Example 3, N-(6-ethyl-5-((2-(1-methyl-1H-pyrazol-4-yl)pyridin-4-yl)oxy)pyridin-2-yl)-3,3-dimethyl-2-oxopyrrolidine-1-carboxamide] | 687 | 667 | 229 |  | 
18 | CNc1cc(Oc2ccc(NC(=O)N3CCC(C)(C)C3=O)nc2C)ccn1 [Example 42, 3,3-dimethyl-N-(6-methyl-5-((2-(methylamino)pyridin-4-yl)oxy)pyridin-2-yl)-2-oxopyrrolidine-1-carboxamide] | > 2000 | > 2000 | 2280 |  | 
19 | Cc1nc(NC(=O)N2CCC(C)(C)C2=O)ccc1Oc1ccnc(-c2cnn(C(C)C)c2)c1 [Example 13, N-(5-((2-(1-isopropyl-1H-pyrazol-4-yl)pyridin-4-yl)oxy)-6-methylpyridin-2-yl)-3,3-dimethyl-2-oxopyrrolidine-1-carboxamide] | 245 | 263 | 99.7 |  | 
20 | Cc1nc(NC(=O)N2CCCC2=O)ccc1Oc1ccnc(-c2cnn(C)c2)c1 [Example 38, N-(6-methyl-5-((2-(1-methyl-1H-pyrazol-4-yl)pyridin-4-yl)oxy)pyridin-2-yl)-2-oxopyrrolidine-1-carboxamide] |  |  | 1470 |  | 
21 | [2H]C([2H])([2H])n1cc(-c2cc(Oc3ccc(NC(=O)N4CCCC(C)(C)C4=O)nc3C)ccn2)cn1 [Example 39, 3,3-dimethyl-N-(6-methyl-5-((2-(1-(methyl-d3)-1H-pyrazol-4-yl)pyridin-4-yl)oxy)pyridin-2-yl)-2-oxopiperidine-1-carboxamide] | 35 | 48.3 | 20.2 |  | 
22 | Cc1nc(NC(=O)N2CCC(C)(C)C2=O)ccc1Oc1ccnc(-c2cnn([C@H]3CCOC3)c2)c1 [Example 12, (S)-3,3-dimethyl-N-(6-methyl-5-((2-(1-(tetrahydrofuran-3-yl)-1H-pyrazol-4-yl)pyridin-4-yl)oxy)pyridin-2-yl)-2-oxopyrrolidine-1-carboxamide] | 134 | 158 | 71.7 |  | 
23 | CCCn1cc(-c2cc(Oc3ccc(NC(=O)N4CCC(C)(C)C4=O)nc3C)ccn2)cn1 [Example 14, 3,3-dimethyl-N-(6-methyl-5-((2-(1-propyl-1H-pyrazol-4-yl)pyridin-4-yl)oxy)pyridin-2-yl)-2-oxopyrrolidine-1-carboxamide] | 115 | 118 | 46.4 |  | 
24 | CC(=O)Nc1cc(Oc2ccc(NC(=O)N3CCC(C)(C)C3=O)nc2C)ccn1 [Example 23, N-(5-((2-acetylamidopyridin-4-yl)oxy)-6-methylpyridin-2-yl)-3,3-dimethyl-2-oxopyrrolidine-1-carboxamide] | 384 | 620 | 83 |  | 
25 | Cc1nc(NC(=O)N2CCC(C)(C)C2=O)ccc1Oc1ccnc(-c2cnn(CC(C)(C)O)c2)c1 [Example 16, N-(5-((2-(1-(2-hydroxy-2-methylpropyl)-1H-pyrazol-4-yl)pyridin-4-yl)oxy)-6-methylpyridin-2-yl)-3,3-dimethyl-2-oxopyrrolidine-1-carboxamide] |  |  | 230 |  | 
26 | Cc1nc(NC(=O)N2CCC(C)(C)C2=O)ccc1Oc1ccnc(-c2cnn(C)c2)n1 [Example 22, 3,3-dimethyl-N-(6-methyl-5-((2-(1-methyl-1H-pyrazol-4-yl)pyrimidin-4-yl)oxy)pyridin-2-yl)-2-oxopyrrolidine-1-carboxamide] | 500 | 500 | 249 |  | 
